This is an account of results in US20040044007A1, “Indoline derivatives” (H. Lundbeck A/S, priority 2000, published 2004).

Molecules are shown by their SMILES. Counter-ions that a name gives are not always drawn.

For data set [1], the target named is T1, human cloned dopamine D4.2 receptors (Homo sapiens, UniProt P21917, DEL265-296).
T1 construct: expressed in transfected cells; host or cells: CHO cells
T1 sequence (P21917 with tags, fused parts or gaps DEL265-296): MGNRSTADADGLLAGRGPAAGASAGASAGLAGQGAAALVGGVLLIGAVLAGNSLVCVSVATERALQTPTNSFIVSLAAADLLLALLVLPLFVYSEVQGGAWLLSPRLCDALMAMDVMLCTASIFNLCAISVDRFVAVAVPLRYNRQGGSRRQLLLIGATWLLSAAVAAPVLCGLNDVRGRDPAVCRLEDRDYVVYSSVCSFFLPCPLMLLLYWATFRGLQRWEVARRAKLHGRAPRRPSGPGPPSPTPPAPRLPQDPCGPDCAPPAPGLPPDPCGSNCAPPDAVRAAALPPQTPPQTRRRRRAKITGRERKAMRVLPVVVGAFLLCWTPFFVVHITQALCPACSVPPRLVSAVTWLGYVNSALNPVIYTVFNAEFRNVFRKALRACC
As to the kind of experiment: Inhibition of the binding of [3H]YM-09151-2 to D4.2 receptors. The settings on record: [3H]YM-09151-2 0.06 nM; for % inhib. at the D4-receptor: % inhibition of binding at 50 nM; for IC50: membranes of CHO-cells, read-out: IC50 (nM) at the D4-receptor. An excerpt: The method is modified from NEN Life Science Products, Inc., technical data certificate PC2533-10/96.

Another data set has as its target T2, 5-HT2A receptors (Rattus norvegicus, UniProt P14842).
T2 construct: membranes from rat brain (cortex) in vitro; from tissue; host or cells: rat brain cortex membranes
As to the kind of experiment: Inhibition of the binding of [3H]Ketanserin to 5-HT2A receptors. The note with it: [3H]Ketanserin 0.50 nM, membranes from rat brain (cortex); read-out: IC50 (nM) at the 5HT2A-receptor. How it is done:
Inhibition of the Binding of [^3H]Ketanserin to 5-HT2A Receptors
The compounds were tested with respect to their affinity for 5-HT2A receptors by determining their ability to inhibit binding of [^3H]Ketanserin (0.50 nM) to membranes from rat brain (cortex) in vitro. Method described in Sanchez et al. Drug Dev. Res. 1991, 22, 239-250.

The target in a further data set is T3, D4 receptor (Homo sapiens, UniProt P21917).
T3 sequence (P21917 1-419): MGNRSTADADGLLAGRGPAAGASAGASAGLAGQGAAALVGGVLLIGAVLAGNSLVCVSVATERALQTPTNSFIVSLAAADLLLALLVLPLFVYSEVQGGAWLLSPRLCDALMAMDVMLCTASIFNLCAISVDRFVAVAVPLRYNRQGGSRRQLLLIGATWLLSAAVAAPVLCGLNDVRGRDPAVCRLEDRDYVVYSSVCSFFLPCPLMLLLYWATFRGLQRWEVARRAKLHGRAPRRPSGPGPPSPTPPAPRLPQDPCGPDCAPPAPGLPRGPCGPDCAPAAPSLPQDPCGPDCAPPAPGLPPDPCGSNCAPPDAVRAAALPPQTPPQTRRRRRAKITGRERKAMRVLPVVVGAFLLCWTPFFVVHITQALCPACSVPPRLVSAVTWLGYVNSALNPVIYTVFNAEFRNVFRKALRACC
The note with it: various in vitro efficacy assays (Gazi et al.); cited from earlier work.

T2 sequence (P14842 whole entry): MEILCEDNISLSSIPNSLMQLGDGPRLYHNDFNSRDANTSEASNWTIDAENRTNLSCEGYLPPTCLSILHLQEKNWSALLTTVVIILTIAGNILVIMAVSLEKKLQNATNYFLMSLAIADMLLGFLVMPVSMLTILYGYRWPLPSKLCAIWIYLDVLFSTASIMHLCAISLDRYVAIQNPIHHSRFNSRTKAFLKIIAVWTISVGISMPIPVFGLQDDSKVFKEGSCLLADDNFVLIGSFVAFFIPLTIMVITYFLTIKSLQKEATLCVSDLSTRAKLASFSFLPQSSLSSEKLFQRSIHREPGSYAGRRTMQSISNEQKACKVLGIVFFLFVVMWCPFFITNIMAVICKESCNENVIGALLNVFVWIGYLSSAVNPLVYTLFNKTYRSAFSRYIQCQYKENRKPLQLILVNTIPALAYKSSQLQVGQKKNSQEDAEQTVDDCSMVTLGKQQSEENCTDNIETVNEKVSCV

Turning to `CC(=O)N1CC(CCN2CCN(c3ccc(Cl)c(Cl)c3)CC2)c2ccccc21` (single isomer, unassigned; (+)) (as salt: hydrochloride) [Compound 1d, (+)-1-[2-(1-Acetyl-2,3-dihydro-1H-indol-3-yl)ethyl]-4-(3,4-dichlorophenyl)piperazine, hydrochloride], the melting point (usually the temperature, or range, at which the solid turns liquid) was 184 to 186 °C.
As for `CC(=O)N1CC(CCN2CCN(c3ccc(C)c(C)c3)CC2)c2ccccc21.Cl` (single isomer, unassigned; (+)) [Compound 1a, (+)-1-[2-(1-Acetyl-2,3-dihydro-1H-indol-3-yl)ethyl]-4-(3,4-dimethylphenyl)piperazine, hydrochloride], in data set [1], the “% inhib. at the D4-receptor” value was found to be 88% and the IC50 (commonly the point on the concentration scale where inhibition reaches its midpoint) was < 50 nM. In addition, the IC50 at 5-HT2A receptors was determined as 5 nM.
The molecule `CC(=O)N1CC(CCN2CCN(c3ccc(C)cc3)CC2)c2ccccc21.Cl` (single isomer, unassigned; (+)) [Compound 1b, (+)-1-[2-(1-Acetyl-2,3-dihydro-1H-indol-3-yl)ethyl]-4-(4-methylphenyl)piperazine, hydrochloride] gave a melting point of 217 to 220 °C. Further, in data set [1], the “% inhib. at the D4-receptor” value stood at 88% and the half-maximal inhibitory concentration (IC50) was < 50 nM. In addition, the IC50 on 5-HT2A receptors was 15 nM.
For `CC(=O)N1CC(CCN2CCC(c3ccc(C)cc3)CC2)c2ccccc21` (single isomer, unassigned; (+)) [Compound 1c, (+)-1-[2-(1-Acetyl-2,3-dihydro-1H-indol-3-yl)ethyl]-4-(4-methylphenyl)piperidine] the same measures were 112 to 114 °C, 76%, < 50 nM and 17 nM.
In the case of `CC(=O)N1CC(CCN2CCN(c3ccc(Cl)c(Cl)c3)CC2)c2ccccc21` (single isomer, unassigned; (+)) [Compound 1d, (+)-1-[2-(1-Acetyl-2,3-dihydro-1H-indol-3-yl)ethyl]-4-(3,4-dichlorophenyl)piperazine, hydrochloride], in data set [1], the “% inhib. at the D4-receptor” value was determined as 86% and the IC50 is < 50 nM. The IC50 on 5-HT2A receptors was 21 nM.
Taken in the same sequence, the figures for `CC(=O)N1CC(CCN2CCN(c3ccc(Br)cc3)CC2)c2ccccc21` (stereo not drawn) [Compound 1e, (+)-]-[2-(1-Acetyl-2,3-dihydro-1H-indol-3-yl)ethyl]-4-(4-bromophenyl)piperazine, hydrochloride] were 95%, < 50 nM and 17 nM.
As to `CC(=O)N1CC(CCN2CC=C(c3ccc(Cl)c(Cl)c3)CC2)c2ccccc21` (centres unmarked) [Compound 1f, ]-[2-(1-Acetyl-2,3-dihydro-1H-indol-3-yl)ethyl]-4-(3,4-dichlorophenyl)-3,6-dihydro-2H-pyridine, hydrochloride], the figures for the IC50 (in data set [1]; on 5-HT2A receptors) were 13 nM and 27 nM, respectively.
Turning to `CC(=O)N1CC(CCN2CCC(c3ccc(Cl)c(Cl)c3)CC2)c2ccccc21` (centres unmarked) [Compound 1g, 1-[2-(1-Acetyl-2.3-dihydro-1H-indol-3-yl)ethyl]-4-(3.4-dichlorophenyl)piperidine, hydrochloride], the half-maximal inhibitory concentration (IC50) in data set [1] turned out to be 5.4 nM; at 5-HT2A receptors it was 21 nM.
`CC(C)Oc1cccnc1N(C)C1CCN(Cc2ccccc2)CC1` [Compound U-101958]: the “Functional activity at D4 receptor” value on D4 receptor is given as “partial D4 receptor agonists”.
